Measured values: publication PMC7859723 (International Journal of Biological Macromolecules, 2021)

Experiments:
SARS-CoV-2 3CLpro [1] = target: T1, SARS-CoV-2 3CLpro (Severe acute respiratory syndrome coronavirus 2, UniProt P0DTD1); assay: SPR binding assay on immobilized 3CLpro
SARS-CoV-2 3CLpro [2] = target: T1, SARS-CoV-2 3CLpro; assay: FRET protease assay, 3CLpro enzyme activity inhibition; format: biochemical
3CLpro [3] = conditions: read-out: IC50, inhibition of 3CLpro activity; cited from earlier work
3CLpro [4] = conditions: cited from earlier work
Water solubility = format: physicochemical
[5] = retrieved from database; ref TCMSP database; cited from earlier work
SARS-CoV-2 3CLpro [6] = target: T1, SARS-CoV-2 3CLpro; assay: Thermal shift assay; format: binding; conditions: compared with DMSO control

SMILES	Kd (SARS-CoV-2 3CLpro [1]) [nM]	IC50 (SARS-CoV-2 3CLpro [2]) [nM]	further results
O=c1cc(-c2ccc(O)c(O)c2)oc2cc(O)cc(O)c12 [Luteolin, luteolin]	1630	89700	–
O=C1C[C@@H](c2ccc(O)cc2)Oc2cc(O)cc(O)c21 [Naringenin, naringenin]	2870	> 100000	–
O=c1c2ccccc2[se]n1-c1ccccc1 [Ebselen]	–	–	IC50 (3CLpro [3]): 670 ± 90 nM; EC50 (3CLpro [4]): 4670 ± 800 nM
COc1cc(-c2oc3cc(O)cc(O)c3c(=O)c2O)ccc1O [Isorhamnetin, isorhamnetin]	–	–	water solubility (Water solubility): low water solubility
O=c1c(O)c(-c2ccc(O)cc2)oc2cc(O)cc(O)c12 [Kaempferol, kaempferol]	1700	> 100000	–
O=C(O[C@@H]1Cc2c(O)cc(O)cc2O[C@@H]1c1cc(O)c(O)c(O)c1)c1cc(O)c(O)c(O)c1 [Epigallocatechin-3-gallate, epigallocatechin-3-gallate]	–	–	OB (oral bioavailability) [5]: 55.09%; effect on thermal stability of 3CLpro (SARS-CoV-2 3CLpro [6]): altered the thermal stability of SARS-CoV-2 3CLpro in a dose-dependent manner
